“Also recorded” adds a separate entry of the source.
Columns and labels:
Type in all cases: cell-based, human
[1] = test system: PBMCs derived from HCV-infected (Ab+VL+) patients; assay: CD3+CD4+FoxP3+ cell induction in PBMC cultures from HCV-infected patients (flow cytometry); details: 10 μg/ml peptide, 5 days; for increase in CD3+CD4+FoxP3+ cells: PBMCs from Ab+VL+ patients, vs medium alone
Excerpt: (§1) HCV-seropositive subjects with persistent viremia (Ab^+VL^+), patients who spontaneously resolved infection (Ab^+VL^−) and HCV-seronegative, non-infected (Ab^−VL^−) individuals were recruited from the Rhode Island Adult Corrections Institution (ACI) to participate in this study. Recruitment methods and the population are described elsewhere. The Institutional Review Boards of the Miriam Hospital, Rhode Island Department of Corrections and Office of Human Research Protection approved this study. All HCV infected subjects included in these analyses were infected with HCV genotype 1a or 1b (Versant HCV genotype assay 2, Siemens Healthcare Diagnostics Inc.). Hartford Hospital Transplantation Research Laboratory (Hartford, Conn.) and the Cellular Mediated Immunology Core Laboratory at the University of Rhode Island (Providence, R.I.) performed HLA typing.
Cryopreserved PBMCs were thawed; suspended in HEPES-buffered RPMI1640 medium supplemented with 10% HuAB serum (Valley Biomedical, Winchester, Va.), glutamine, 100 U/ml penicillin and 100 μg/ml streptomycin; and rested overnight at 37° C. in a humidified, CO2 incubator. On the following day, the PBMCs were centrifuged and resuspended in fresh medium containing 5% HuAB serum; 1×10^6 cells/nil were transferred to deep, flat-bottom, non-treated 48-well plates. The peptide sequence indicated in the text was added (10 μg/ml final concentration) and the cells were incubated for 5 days. PBMCs cultured in the presence of medium with 0.1% DMSO served as a negative control. Half the spent medium was replaced on day 3. The cells were collected for analysis on day 5.
The cells collected after 5 days incubation were quantified and characterized in accordance with methods we described previously. Dye-conjugated mouse monoclonal antibodies specific for the following determinants were purchased from BioLegend (San Diego, Calif.) and used: CD3, CD4 (clone OKT4), CD8a (clone HIT8a); CD39 (clone A1), and CD304 (clone 14H4); anti-human CD25 (clone M-A251) and anti-human FoxP3 (clone 236a) were purchased BD Biosciences (San Jose, Calif.). Data were collected on a 4 laser (13 color capability) BD LSRII Flow Cytometer (BD Biosciences, San Jose, Calif.) and analyzed using FlowJo software (Tree Star, Inc., Ashland, Oreg.). All analyses were conducted using the appropriate isotype controls to correct for non-specific staining PBMCs were cultured in the presence of medium alone, 10 μg/ml HCV_G1_p7_794, or 10 μg/ml HCV_G1_NS4b_1941.
The results were analyzed using the SigmaStat statistics program (Aspire Software International). Individual means were compared using a non-paired Student's t test or a Mann-Whitney Rank Sum test.
The cells were collected after 5 days incubation and analyzed by flow cytometry (FIGS. 1A-1C). The CD3+CD4+FoxP3+ cells were further characterized by the expression of CD25 and CD39 (FIG. 1B). The gating scheme and representative analyses are shown.

[2] = test system: PBMCs derived from non-infected (Ab-VL-) individuals; assay: CD3+CD4+FoxP3+ cell induction in PBMC cultures from non-infected individuals (flow cytometry); details: 10 μg/ml peptide, 5 days
Excerpt: as §1, with “typing. […]” for “typing.”
The cells collected after 5 days incubation were quantified and characterized in accordance with methods we described previously. […] Data were collected on a 4 laser (13 color capability) BD LSRII Flow Cytometer (BD Biosciences, San Jose, Calif.) and analyzed using FlowJo software (Tree Star, Inc., Ashland, Oreg.). […]
The results were analyzed using the SigmaStat statistics program (Aspire Software International). […]

[3] = test system: CFSE-labeled Ab+VL+ PBMCs; assay: CFSE proliferation assay with or without anti-CD3
Protocol: For proliferation assays, cells rested overnight were labeled with carboxyfluorescein diacetate, succinimidyl ester (CFSE: Life Technologies Corporation, Carlsbad, Calif.) prior to culture in the presence or absence of 30 ng/ml anti-CD3 monoclonal antibody (clone HIT3a; BioLegend, San Diego, Calif.) and 10 μg/ml HCV_G1_p7_794. Cell proliferation was evaluated by flow cytometric analysis according to the protocol provided by Life Technologies in which a loss in fluorescence intensity correlates directly with the extent of replication.
The hallmark of CD3^+CD4^+FoxP3^+ Treg cells is suppressor activity. CSFE-labeled, Ab^+VL^+ PBMCs were cultured with medium alone or medium that contained 30 ng/ml anti-CD3, 10 μg/ml HCV_G1_p7_794 or a combination of anti-CD3 and HCV_G1_p7_794. After 5 days incubation, the cells were collected and proliferation the total (FIG. 3BA) and CD3^+CD4^+ (FIG. 3B) PBMC populations was estimated by flow cytometry. Data were obtained in a single experiment representative of the results obtained for PBMCs derived from six HCV-infected patients.

Sequence	increase in CD3+CD4+FoxP3+ cells [1]	increase in CD3+CD4+FoxP3+ cells [2]	increase in CD3+CD4+FoxP3+ cells ([2]; vs medium alone)	effect on proliferative response to anti-CD3 monoclonal antibody ([3]; 30 ng/ml anti-CD3 plus 10 μg/ml peptide, 5 days, total or CD3+CD4+ population)	effect on proliferation of CD3+CD4+ T cells ([3]; 10 μg/ml peptide alone, no anti-CD3, 5 days)	CD25 and CD39 expression by induced CD3+CD4+FoxP3+ cells ([1]; Ab+VL+ PBMCs)	CD304 (neuropilin) expression by CD4+FoxP3+ cells ([1]; Ab+VL+ PBMCs)
AARVTQILSSL TITQLLKRLHQWI [HCV_G1_NS4b_1941, reference compound]	failed to promote an increase	–	–	–	–	–	–
ISGIQYLAGLSTLPGNPA [HCV_G1_NS4b_1769, reference compound]	failed to elicit a CD3+CD4+FoxP3+ cell response	–	–	–	–	–	–
PLLLLLLSLPPRA [Human p7_794]	significant increase	three	significant increase	–	–	–	–
WPLLLLLLALPQRAYAQ (Hepatitis C virus) [HCV_G1_p7_794]	marked increase	–	–	reproducible, albeit slight, decrease	no effect	expressed both CD25; also recorded: vast majority of these cells expressed CD39	vast majority of CD4^+FoxP3^+ cells among Ab^+VL^+ PBMCs cultured in the presence of HCV_G1_p7_794 were CD304-negative; also recorded: only a minority
